US11000033B2, “Ketone or oxime compound, and herbicide” (NISSAN CHEMICAL CORPORATION, priority 2014, dated 2021)

Columns and labels:
Format in all cases: in vivo
[1] = tested on: Apera spica-venti; experiment: Test Example 5: herbicidal effect by foliage application, plastic box (symbol L); settings: 320 g/ha, 3 weeks after application
Method in brief: (§1)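 Emulsion formulation, diluted with water to the intended rate, was applied uniformly to leaves by small sprayer. Recipients were 14-day greenhouse-grown seedlings (25° C. to 30° C.). Assessment followed at 3 weeks.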

[2] = tested on: Setaria viridis; experiment: Test Example 4: herbicidal effect by soil treatment (symbol G); settings: 320 g/ha
Method in brief: (§2)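 Seeds were sown in sterilized diluvial soil, covered with about 1.5 cm of soil, and the soil surface was sprayed with a water-diluted emulsion of the compound at a predetermined rate. Plants grew in a greenhouse at 25° C. to 30° C.; effects were scored visually 3 weeks after application.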

[3] = tested on: Echinochloa oryzacola Vasing.; experiment: Test Example 1: herbicidal activity, application before weed generation in submerged conditions (symbol A); settings: application herbicide amount 320 g/ha
Method in brief: (§3)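 Greenhouse growth at 25–30 °C lasted 3 weeks after treatment, when each weed was graded 0–5 by herbicidal ratio. Treatment was a diluted emulsion applied to the water surface of 4 cm-submerged alluvial soil on the sowing day.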

[4] = tested on: Scirpus juncoides; experiment: Test Example 1: herbicidal activity, application before weed generation in submerged conditions (symbol B); settings: application herbicide amount 320 g/ha
Method in brief: as §3

[5] = tested on: Stellaria media; experiment: Test Example 4: herbicidal effect by soil treatment (symbol P); settings: 320 g/ha
Method in brief: as §2

[6] = tested on: Galium spurium; experiment: Test Example 4: herbicidal effect by soil treatment (symbol Q); settings: 320 g/ha
Method in brief: as §2

[7] = tested on: Avena fatua; experiment: Test Example 5: herbicidal effect by foliage application, plastic box (symbol I); settings: 320 g/ha, 3 weeks after application
Method in brief: as §1

[8] = tested on: Abutilon theophrasti; experiment: Test Example 4: herbicidal effect by soil treatment (symbol M); settings: 320 g/ha
Method in brief: as §2

[9] = tested on: Lolium multiflorum Lam.; experiment: Test Example 5: herbicidal effect by foliage application, plastic box (symbol K); settings: 320 g/ha, 3 weeks after application
Method in brief: as §1

[10] = tested on: wheat; experiment: Test Example 5: effect on crop by foliage application, plastic box (symbol e); settings: 320 g/ha, 3 weeks after application
Method in brief: (§4)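 Sterilized diluvial soil, plastic box (21 × 13 × 7 cm); spot sowing, ~1.5 cm soil cover; greenhouse 25–30° C.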

[11] = tested on: Galium spurium; experiment: Test Example 5: herbicidal effect by foliage application, plastic box (symbol Q); settings: 320 g/ha, 3 weeks after application
Method in brief: as §1

[12] = tested on: Apera spica-venti; experiment: Test Example 4: herbicidal effect by soil treatment (symbol L); settings: 320 g/ha
Method in brief: as §2

[13] = tested on: Veronica persica; experiment: Test Example 4: herbicidal effect by soil treatment (symbol R); settings: 320 g/ha
Method in brief: as §2

[14] = tested on: directly sowed rice plant; experiment: Test Example 3: effect on crop by foliage application, Wagner pot (symbol b); settings: application herbicide amount 320 g/ha
Method in brief: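 Steps: fill a 1/10000-are Wagner pot with alluvial soil; add water and mix to submerge at 0.1–0.5 cm depth; sow rice plus Echinochloa crus-galli var. crus-galli, Leptochloa chinensis and Cyperus difformis; grow in a 25–30 °C greenhouse.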

[15] = tested on: transplanted rice plant; experiment: Test Example 1: effect on crop, application before weed generation in submerged conditions (symbol a); settings: application herbicide amount 320 g/ha
Method in brief: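 Rice at 2.5 leaf stage transplanted into submerged soil (4 cm depth) sown with three weed species; herbicide applied before weed emergence.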

[16] = tested on: Digitaria ciliaris; experiment: Test Example 5: herbicidal effect by foliage application, plastic box (symbol F); settings: 320 g/ha, 3 weeks after application
Method in brief: as §1

[17] = tested on: rapeseed; experiment: Test Example 5: effect on crop by foliage application, plastic box (symbol g); settings: 320 g/ha, 3 weeks after application
Method in brief: as §4

[18] = tested on: Monochoria vaginalis; experiment: Test Example 1: herbicidal activity, application before weed generation in submerged conditions (symbol C); settings: application herbicide amount 320 g/ha
Method in brief: as §3

Compound	L: Apera spica-venti, herbicidal effect (criteria 0-5) [1]	G: Setaria viridis, herbicidal effect grade [2]	Herbicidal effect grade, A: Echinochloa oryzacola Vasing. [3]	Herbicidal effect grade, B: Scirpus juncoides [4]	P: Stellaria media, herbicidal effect grade [5]	Q: Galium spurium, herbicidal effect grade [6]	I: Avena fatua, herbicidal effect (criteria 0-5) [7]	M: Abutilon theophrasti, herbicidal effect grade [8]	K: Lolium multiflorum Lam., herbicidal effect (criteria 0-5) [9]	e: wheat, effect on crop (criteria 0-5) [10]	Q: Galium spurium, herbicidal effect (criteria 0-5) [11]	L: Apera spica-venti, herbicidal effect grade [12]	R: Veronica persica, herbicidal effect grade [13]	effect on crop b (directly sowed rice plant), grade 0-5 [14]	Effect grade on crop, a: transplanted rice plant [15]	F: Digitaria ciliaris, herbicidal effect (criteria 0-5) [16]	g: rapeseed, effect on crop (criteria 0-5) [17]	Herbicidal effect grade, C: Monochoria vaginalis [18]
CC(CC1CC(O)=C(c2c(C)cc(C)cc2C)C1=O)=NOCCS(C)(=O)=O (stereo not drawn) [1-110]	5 (Herbicidal ratio of 90% or more (almost completely withered))	5 (Herbicidal ratio of 90% or more (almost completely withered))	3 (Herbicidal ratio of 40% or higher and lower than 70%)	0 (Herbicidal ratio of 5% or lower (almost no effect))	0 (Herbicidal ratio of 5% or lower (almost no effect))	0 (Herbicidal ratio of 5% or lower (almost no effect))	5 (Herbicidal ratio of 90% or more (almost completely withered))	0 (Herbicidal ratio of 5% or lower (almost no effect))	5 (Herbicidal ratio of 90% or more (almost completely withered))	5 (Herbicidal ratio of 90% or more (almost completely withered))	3 (Herbicidal ratio of 40% or higher and lower than 70%)	5 (Herbicidal ratio of 90% or more (almost completely withered))	0 (Herbicidal ratio of 5% or lower (almost no effect))	5 (Herbicidal ratio of 90% or more (almost completely withered))	5 (Herbicidal ratio of 90% or more (almost completely withered))	5 (Herbicidal ratio of 90% or more (almost completely withered))	5 (Herbicidal ratio of 90% or more (almost completely withered))	0 (Herbicidal ratio of 5% or lower (almost no effect))
CC(CC1CC(O)=C(c2c(C)cc(C)cc2C)C1=O)=NOCC1OCCO1 (stereo not drawn) [1-111]	5 (Herbicidal ratio of 90% or more (almost completely withered))	5 (Herbicidal ratio of 90% or more (almost completely withered))	5 (Herbicidal ratio of 90% or more (almost completely withered))	2 (Herbicidal ratio of 20% or higher and lower than 40%)	0 (Herbicidal ratio of 5% or lower (almost no effect))	0 (Herbicidal ratio of 5% or lower (almost no effect))	5 (Herbicidal ratio of 90% or more (almost completely withered))	4 (Herbicidal ratio of 70% or higher and lower than 90%)	5 (Herbicidal ratio of 90% or more (almost completely withered))	5 (Herbicidal ratio of 90% or more (almost completely withered))	2 (Herbicidal ratio of 20% or higher and lower than 40%)	5 (Herbicidal ratio of 90% or more (almost completely withered))	0 (Herbicidal ratio of 5% or lower (almost no effect))	5 (Herbicidal ratio of 90% or more (almost completely withered))	5 (Herbicidal ratio of 90% or more (almost completely withered))	5 (Herbicidal ratio of 90% or more (almost completely withered))	5 (Herbicidal ratio of 90% or more (almost completely withered))	1 (Herbicidal ratio of 5% or higher and lower than 20%)
COc1ccc(CON=C(C)CC2CC(O)=C(c3c(C)cc(C)cc3C)C2=O)cc1 (stereo not drawn) [1-112]	5 (Herbicidal ratio of 90% or more (almost completely withered))	5 (Herbicidal ratio of 90% or more (almost completely withered))	5 (Herbicidal ratio of 90% or more (almost completely withered))	5 (Herbicidal ratio of 90% or more (almost completely withered))	0 (Herbicidal ratio of 5% or lower (almost no effect))	0 (Herbicidal ratio of 5% or lower (almost no effect))	5 (Herbicidal ratio of 90% or more (almost completely withered))	0 (Herbicidal ratio of 5% or lower (almost no effect))	5 (Herbicidal ratio of 90% or more (almost completely withered))	5 (Herbicidal ratio of 90% or more (almost completely withered))	3 (Herbicidal ratio of 40% or higher and lower than 70%)	5 (Herbicidal ratio of 90% or more (almost completely withered))	0 (Herbicidal ratio of 5% or lower (almost no effect))	5 (Herbicidal ratio of 90% or more (almost completely withered))	5 (Herbicidal ratio of 90% or more (almost completely withered))	5 (Herbicidal ratio of 90% or more (almost completely withered))	4 (Herbicidal ratio of 70% or higher and lower than 90%)	5 (Herbicidal ratio of 90% or more (almost completely withered))
CC(CC1CC(O)=C(c2c(C)cc(C)cc2C)C1=O)=NOCc1cccc(Cl)c1 (stereo not drawn) [1-114]	5 (Herbicidal ratio of 90% or more (almost completely withered))	5 (Herbicidal ratio of 90% or more (almost completely withered))	5 (Herbicidal ratio of 90% or more (almost completely withered))	5 (Herbicidal ratio of 90% or more (almost completely withered))	0 (Herbicidal ratio of 5% or lower (almost no effect))	0 (Herbicidal ratio of 5% or lower (almost no effect))	5 (Herbicidal ratio of 90% or more (almost completely withered))	0 (Herbicidal ratio of 5% or lower (almost no effect))	5 (Herbicidal ratio of 90% or more (almost completely withered))	4 (Herbicidal ratio of 70% or higher and lower than 90%)	0 (Herbicidal ratio of 5% or lower (almost no effect))	5 (Herbicidal ratio of 90% or more (almost completely withered))	0 (Herbicidal ratio of 5% or lower (almost no effect))	5 (Herbicidal ratio of 90% or more (almost completely withered))	5 (Herbicidal ratio of 90% or more (almost completely withered))	5 (Herbicidal ratio of 90% or more (almost completely withered))	4 (Herbicidal ratio of 70% or higher and lower than 90%)	5 (Herbicidal ratio of 90% or more (almost completely withered))
